Data as given in patent US20060008574A1, “Galactosyl isomalt, method for production and use thereof” (priority 2002, published 2006).

Assay: Stability in the stomach: hydrolysis rate at pH 2.0
Format: physicochemical
Details: 1% solution, 10 mmol/L hydrochloric acid, pH 2.0, 37° C.
Procedure: The stability of a substance in the gastric passage can be simulated by determining the hydrolysis rate at pH 2.0. Sucrose and 1-kestose are used as controls.
In each case a 1% solution of the trisaccharides (DP 3) from Example 4 is incubated with 10 mmol/L hydrochloric acid, pH 2.0 at 37° C. for 3 h. Samples are taken from the reaction mixture after 60, 120 and 180 min and are analyzed by basic anion exchange chromatography, HPAEC.

## OCC1O[C@H](OC[C@@H](O)[C@@H](O)[C@H](O)C(O)CO)C(O)C(O[C@@H]2OC(CO)[C@H](O)C(O)C2O)[C@@H]1O (mixture of isomers) [β-1,3-Galactosyl isomalt, β-D-galactosyl-(1→3)-α-D-glucosyl-(1→6)-D-sorbitol(β-1,3-galactosyl-1,6-GPS) and β-D-galactosyl-(1→3)-α-D-glucosyl-(1→1)-D-mannitol(β-1,3-galactosyl-1,1-GPM)]
Incubation time 0 min
  Hydrolysis rate [%]: 0%
Incubation time 60 min
  Hydrolysis rate [%]: 0%
Incubation time 120 min
  Hydrolysis rate [%]: 0%
Incubation time 180 min
  Hydrolysis rate [%]: <1%
